Source: patent publication US4593093A, “Acyl derivatives” (priority 1980, dated 1986)
Where a name gives a salt, the structure may show the parent alone. Read-outs that look alike come from different tables or passages of the source.

Assays:
[1] = tested on: Pseudomonas aeruginosa; assay: Activity in vivo: survival of intraperitoneally infected mice; conditions: sc, 96 h; mice infected i.p. with Pseudomonas aeruginosa; s.c. three times, 1 h, 3 h and 5 h after infection; survival on 4th day; read-out: CD50 (dosage at which 50% of the animals survive)
Description: (§1) Groups of 5 mice are infected intraperitoneally with an aqueous suspension of various pathogens. The test substance in physiological sodium chloride solution is administered subcutaneously twice, i.e. 1 hour and 3 hours after the infection. The number of surviving animals is determined on the 4th day. Various dosages are administered and that dosage at which 50% of the experimental animals survive (CD50, mg/kg) is determined by interpolation.
*Administered subcutaneously three times: 1 hour, 3 hours and 5 hours

[2] = tested on: Enterobacter cloacae; assay: Activity in vitro: minimum inhibitory concentration; assay type: cell-based
[3] = tested on: Pseudomonas aeruginosa; assay: as above; assay type: cell-based
[4] = tested on: Klebsiella pseumoniae; assay: as above; assay type: cell-based
[5] = tested on: Citrobacter freundii; assay: as above; assay type: cell-based
[6] = tested on: Escherichia coli; assay: as above; assay type: cell-based
[7] = tested on: Proteus morganii; assay: as above; assay type: cell-based; conditions: Morganella morganii
[8] = tested on: Proteus vulgaris; assay: as above; assay type: cell-based
[9] = tested on: Streptococcus pyogenes; assay: as above; assay type: cell-based
[10] = tested on: Proteus mirabilis; assay: as above; assay type: cell-based
[11] = Toxicity, LD50; conditions: in vivo
[12] = tested on: Serratia marcescens; assay: Activity in vitro: minimum inhibitory concentration; assay type: cell-based
[13] = tested on: Staphylococcus aureus; assay: as above; assay type: cell-based
[14] = tested on: Escherichia coli; assay: Activity in vivo: survival of intraperitoneally infected mice; conditions: sc, 96 h; mice infected i.p. with Escherichia coli; s.c. twice, 1 h and 3 h after infection; survival on 4th day; read-out: CD50 (dosage at which 50% of the animals survive)
Description: as §1

[15] = tested on: Streptococcus pyogenes; assay: as above; conditions: sc, 96 h; mice infected i.p. with Streptococcus pyogenes; s.c. twice, 1 h and 3 h after infection; survival on 4th day; read-out: CD50 (dosage at which 50% of the animals survive)
Description: as §1

[16] = tested on: Serratia marcescens; assay: as above; conditions: sc, 96 h, mice infected i.p. with Serratia marcescens strain 1, s.c. twice, 1 h and 3 h after infection, survival on 4th day, read-out: CD50 (dosage at which 50% of the animals survive)
Description: as §1

[17] = tested on: Streptococcus faecalis; assay: Activity in vitro: minimum inhibitory concentration; assay type: cell-based; conditions: Enterococcus faecalis
[18] = tested on: Proteus rettgeri; assay: as above; assay type: cell-based; conditions: Providencia rettgeri
[19] = tested on: Proteus inconstans; assay: as above; assay type: cell-based; conditions: Providencia alcalifaciens
[20] = tested on: Staphylococcus epidermis; assay: as above; assay type: cell-based
[21] = tested on: Streptococcus pneumoniae; assay: as above; assay type: cell-based
[22] = tested on: Streptococcus viridans; assay: as above; assay type: cell-based
[23] = tested on: Enterobacter aerogenes; assay: as above; assay type: cell-based; conditions: Klebsiella aerogenes
[24] = tested on: Haemophilus influenzae; assay: Activity in vivo: survival of intraperitoneally infected mice; conditions: sc, 96 h; mice infected i.p. with Haemophilus influenzae; s.c. twice, 1 h and 3 h after infection; survival on 4th day; read-out: CD50 (dosage at which 50% of the animals survive)
Description: as §1

[25] = tested on: Enterobacter cloacae; assay: as above; conditions: sc, 96 h; mice infected i.p. with Enterobacter cloacae; s.c. twice, 1 h and 3 h after infection; survival on 4th day; read-out: CD50 (dosage at which 50% of the animals survive)
Description: as §1

[26] = Pseudomonas aeruginosa strain 1
[27] = Pseudomonas aeruginosa strain 2
[28] = Pseudomonas aeruginosa strain 3
[29] = Streptococcus pyogenes strain 1, read-out: Minimum inhibitory concentration

Structure (SMILES): CO/N=C(\C(=O)N[C@@H]1C(=O)N2C(C(=O)O)=C(COC(C)=O)CS[C@H]12)c1c[se]c(N)n1 [Product D, (6R, 7R)-3-(acetoxymethyl)-7-[2-(2-amino-4-selenazolyl)-2-[(Z)-methoxyimino]-acetamido]-8-oxo-5-thia-1-azabicyclo[4.2.0]oct-2-ene-2-carboxylic acid disodium salt]
- ED50 [1]: 35 mg/kg
- MIC ([2]; Enterobacter cloacae strain 1): > 100 µg/mL
- MIC ([2]; Enterobacter cloacae strain 2): 3.1 µg/mL
- MIC [3, 26]: 12.5 µg/mL
- MIC [3, 27]: 12.5 µg/mL
- MIC [3, 28]: 3.1 µg/mL
- MIC ([4]; Klebsiella pseumoniae strain 1): 0.2 µg/mL
- MIC ([4]; Klebsiella pseumoniae strain 2): 0.025 µg/mL
- MIC ([5]; Citrobacter freundii strain 1): 6.3 µg/mL
- MIC ([6]; Escherichia coli strain 1): 0.1 µg/mL
- MIC ([6]; Escherichia coli strain 2): 0.025 µg/mL
- MIC [7]: 0.39 µg/mL
- MIC [8]: 0.78 µg/mL
- MIC [9, 29]: 0.05 µg/mL
- MIC ([10]; Proteus mirabilis strain 1): 0.025 µg/mL
- MIC ([10]; Proteus mirabilis strain 2): 0.05 µg/mL
- LD50 ([11]; po): > 5000 mg/kg
- LD50 ([11]; sc): > 4000 mg/kg
- MIC ([12]; Serratia marcescens strain 1): 0.8 µg/mL
- MIC ([12]; Serratia marcescens strain 2): 0.8 µg/mL
- MIC ([13]; Staphylococcus aureus strain 1): 0.8 µg/mL
- MIC ([13]; Staphylococcus aureus strain 2): 3.1 µg/mL
- ED50 [14]: < 0.01 mg/kg
- ED50 [15]: 0.05 mg/kg
- ED50 [16]: 0.14 mg/kg

Structure (SMILES): CO/N=C(\C(=O)N[C@@H]1C(=O)N2C(C(=O)O)=C(CSc3nnc(C)s3)CS[C@H]12)c1c[se]c(N)n1 [Product B, (6R, 7R)-7-[2-)2-amino-4-selenazolyl)-2-[(Z)-methoxyimino]-acetamido]-3-[[(5-methyl-1,3,4-thiadiazol-2-yl)thio]methyl]-8-oxo-5-thia-1-azabicyclo[4.2.0]oct-2-ene-2-carboxylic acid sodium salt]
- MIC ([17]; Streptococcus faecalis strain 1): 100 µg/mL
- MIC ([17]; Streptococcus faecalis strain 2): 100 µg/mL
- MIC [18]: 0.2 µg/mL
- ED50 [1]: 134 mg/kg
- MIC [19]: 0.025 µg/mL
- MIC ([2]; Enterobacter cloacae strain 1): > 100 µg/mL
- MIC ([2]; Enterobacter cloacae strain 2): 1.6 µg/mL
- MIC ([2]; Enterobacter cloacae strain 3): 50 µg/mL
- MIC [20]: 0.8 µg/mL
- MIC [3, 26]: 50 µg/mL
- MIC [3, 27]: 25 µg/mL
- MIC [3, 28]: 6.3 µg/mL
- MIC ([4]; Klebsiella pseumoniae strain 1): 0.4 µg/mL
- MIC ([4]; Klebsiella pseumoniae strain 2): 0.1 µg/mL
- MIC ([4]; Klebsiella pseumoniae strain 3): 0.2 µg/mL
- MIC ([5]; Citrobacter freundii strain 1): 1.6 µg/mL
- MIC ([5]; Citrobacter freundii strain 2): 0.2 µg/mL
- MIC [21]: 0.025 µg/mL
- MIC ([6]; Escherichia coli strain 1): 0.2 µg/mL
- MIC ([6]; Escherichia coli strain 2): 0.006 µg/mL
- MIC ([6]; Escherichia coli strain 3): 0.8 µg/mL
- MIC ([6]; Escherichia coli strain 4): 0.2 µg/mL
- MIC ([6]; Escherichia coli strain 5): 0.4 µg/mL
- MIC [7]: 0.05 µg/mL
- MIC [22]: 0.8 µg/mL
- MIC [8]: 0.78 µg/mL
- MIC ([23]; Enterobacter aerogenes strain 1): 0.1 µg/mL
- MIC ([23]; Enterobacter aerogenes strain 2): 0.1 µg/mL
- MIC [9, 29]: 0.025 µg/mL
- MIC ([9]; Streptococcus pyogenes strain 2, read-out: Minimum inhibitory concentration): ≤ 0.012 µg/mL
- MIC ([10]; Proteus mirabilis strain 1): 0.19 µg/mL
- MIC ([10]; Proteus mirabilis strain 2): 0.19 µg/mL
- MIC ([10]; Proteus mirabilis strain 3): 0.2 µg/mL
- MIC ([10]; Proteus mirabilis strain 4): 0.4 µg/mL
- MIC ([10]; Proteus mirabilis strain 5): 0.4 µg/mL
- LD50 ([11]; po): > 5000 mg/kg
- LD50 ([11]; sc): > 4000 mg/kg
- MIC ([12]; Serratia marcescens strain 1): 0.8 µg/mL
- MIC ([12]; Serratia marcescens strain 2): 1.6 µg/mL
- MIC ([12]; Serratia marcescens strain 3): 0.2 µg/mL
- MIC ([13]; Staphylococcus aureus strain 1): 0.8 µg/mL
- MIC ([13]; Staphylococcus aureus strain 2): 1.6 µg/mL
- MIC ([13]; Staphylococcus aureus strain 3): 0.8 µg/mL
- MIC ([13]; Staphylococcus aureus strain 4): 1.6 µg/mL
- ED50 [24]: 0.27 mg/kg
- ED50 [14]: 0.006 mg/kg
- ED50 [25]: > 12 mg/kg
- ED50 [15]: 0.05 mg/kg
- ED50 [16]: 0.52 mg/kg
